Active and inactive are the calls of the source.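 Rule for the calls: active = fitted curve reaching 40% activation at or below the top valid dose tested; inconclusive = flat curve at 30 to 70% activation, or poor fit; inactive = the rest.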
tested on: SK-MEL-5 TRPM1 promoter luciferase reporter, 24 h; assay: MITF activators via TRPM1 promoter reporter, dose response, SK-MEL-5 cells, luciferase, cherry-pick samples (AID 540258);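 note: potency for activators that raise TRPM1 promoter luciferase signal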

SMILES | AC40
N#C/C(C(=O)N1CCCCC1)=C1\Nc2ccccc2S1 | 5.02 µM
COc1ccccc1C(=O)NCCC(=O)NC1CCC(C)CC1 (stereo not drawn) | 3.62 µM
O=C(NCCC1=CCCCC1)NC12CC3CC(CC(C3)C1)C2 | 0.703 µM
CCCn1ncc2c(Nc3ccc(C)c(C)c3)ncnc21 | 4.16 µM
COc1ccc2c(c1)CC/C2=N\OC(=O)c1ccccc1C | 1.27 µM
CCC(=O)c1ccc(OCc2ccccc2)c(OC)c1 | 2.57 µM
COC(=O)c1ccc(CSC2=NCCS2)cc1 | 3.38 µM
c1ccc(COc2ccc(-c3csnn3)cc2)cc1 | 0.889 µM
c1ccc2oc(-c3ccc4nc[nH]c4c3)nc2c1 | 0.866 µM
c1ccc(-c2noc(CCC3CCCC3)n2)cc1 | 4.35 µM
Cc1nc(C(=O)Nc2ccccc2)sc1C(=O)Nc1ccccc1 | 3.89 µM
c1ccc(CCn2nnc3ccccc32)cc1 | 0.867 µM
O=c1c(-c2nc3ccccc3s2)cccn1Cc1ccccc1 | 0.945 µM
Oc1ccc(Br)cc1/C=N/N1CCCCC1 | 1.75 µM
CCS(=O)(=O)Nc1ccc(C(=O)NCCSc2ccccc2)cc1 | 34.6 µM
O=C(O)c1ccc(-c2nc(-c3ccc(Cl)cc3)cs2)cc1 | 0.309 µM
Oc1nc(Nc2ccccc2)sc1/C=C1\C=Nc2ccccc21 | 9.81 µM
CCC(=O)Nc1sc(C(=O)Nc2ccccc2F)c(C)c1C(=O)OC | 0.568 µM
O=C(Nc1ccccn1)c1ccccc1 | 14.8 µM
O=C1/C(=C/c2cccnc2)CCc2c1[nH]c1ccccc21 | 6.49 µM
CCS(=O)(=O)N1Cc2ccccc2CC1C(=O)NCc1cccc(OC)c1 (stereo not drawn) | > 35 µM (inactive)
Cc1cccc(-c2nc(C#N)c(NC3CCCCC3)o2)c1 | 1.29 µM
COc1ccc(-c2cn(CC3CCCCC3)nn2)cc1 | 3.61 µM
O=S(=O)(Cc1cc(-c2ccccc2Cl)no1)c1ccccc1 | 9.76 µM

SMILES | AC40
CSc1ccc(-c2nnn(Cc3ccc(C)cc3)n2)cc1 | 5.08 µM
Cc1ccc(Nc2cc(C)c3c(O)cccc3n2)cc1C | 3.4 µM
COC(=O)c1c(C)[nH]c(/C=N/Nc2ccccc2)c1C | > 35 µM (inactive)
O=C(CNc1cccc(F)c1)N1CCc2ccccc2C1 | 4.43 µM
COc1ccc(Br)c(C(=O)Nc2nc3ccccc3[nH]2)c1 | 4.94 µM
Cc1ccc(C(=O)Oc2cccc(-n3cnnn3)c2)cc1 | 4.7 µM
CCN1CCN(c2ccc(NC(=O)c3cccc(F)c3)cc2Cl)CC1 | 3.08 µM
COc1cc2c(C)nc3c(cnn3-c3ccccc3)c2cc1OC | 2.87 µM
COC(=O)Cc1ccc(NC(=O)c2ccc(C)c(C)c2)cc1 | 1.49 µM
COc1cccc(Nc2nc(-c3ccc(O)cc3)cs2)c1 | 3.18 µM
CCCCn1cnc2sc(-c3ccccc3)cc2c1=O | 0.812 µM
COc1ccc(-c2csc(N(C)C(=O)c3cccs3)n2)cc1 | 6.73 µM
C#CCSc1nnc(-c2ccc(O)cc2)o1 | 9.52 µM
COc1ccc2c(c1)CC/C(=C\Nc1ccc3c(c1)OCO3)C2=O | 2.3 µM
Cc1nc(NC(C)C)c2cnn(CCc3ccccc3)c2n1 | 7.11 µM
CC(C)Nc1oc(-c2cccc3ccccc23)nc1C#N | 9.14 µM
NC(=O)c1ccc(-c2noc(-c3cccc(Cl)c3)n2)cc1 | 3.8 µM
CCCc1ccc(OCc2nc(-c3ccc(NC(=O)c4cccs4)cc3)no2)cc1 | 14.2 µM
N#Cc1ccsc1NC(=O)CCc1ccccc1 | 9.77 µM
CCC(=O)NCCc1nc2cc(NC(=O)c3ccc(Cl)cc3)ccc2n1C | 0.755 µM
O=C(NC1CCCC1)c1cc(-c2ccc(Cl)cc2Cl)on1 | 0.393 µM
Cc1nc(COC(=O)c2c(C)nn(-c3ccccc3)c2C)cs1 | 21.1 µM
COc1ccc(Oc2ncnc3sccc23)cc1 | 6.05 µM
COc1cc(/C=C/c2noc(-c3ccccc3O)n2)ccc1OC(C)=O | 1.62 µM

SMILES | AC40
N/C(=N\OC(=O)C1CCCCC1)c1cccc(Br)c1 | 13.5 µM
COc1cc(C=O)ccc1OCc1cccc(Br)c1 | 5.93 µM
Brc1ccc(/C=N/Nc2ccccc2)cc1 | 15.4 µM
C=CCn1cccc(C(=O)Nc2ccc(Cl)cc2)c1=O | > 11 µM (inactive)
CSc1nc(N)n2nc(-c3ccc(Cl)cc3)cc2n1 | 0.727 µM
O=C(Nc1ccc(-c2nc3cccnc3s2)cc1)c1ccc(Cl)nc1 | 2.11 µM
Cc1ccccc1S(=O)(=O)Oc1ccc2ccc(O)cc2c1 | 25.7 µM
CC(=O)c1ccc(N2Cc3ccccc3C2=NC(=O)c2cccs2)cc1 | 24.6 µM
CCn1c(/C=C/c2c[nH]c3ccccc23)nc2ccccc2c1=O | 0.583 µM
c1csc(-c2noc(COc3ccc4c(c3)CCCC4)n2)c1 | 2.14 µM
COc1ccc2c(c1OC)C(=O)N1c3ccccc3COC21 (stereo not drawn) | 0.955 µM
c1ccc(CSCc2nc3ccccc3[nH]2)cc1 | 6.65 µM
CNC(=O)c1ccc(-c2cc3onc(-c4ccccc4)c3c(=O)n2C)cc1 | 6.96 µM
Fc1ccccc1CSc1nnc(-c2ccccc2)o1 | 0.935 µM
Cc1cc(C)c2nc(NCc3ccccc3O)sc2c1 | 19 µM
Cc1ccc(/C=N/N2C(=O)c3ccccc3NC2c2ccc(C)cc2)cc1 (stereo not drawn) | 20.5 µM
Cc1cc(C(=O)CN2C(=O)NC3(CCCCC3C)C2=O)c(C)n1Cc1cccs1 (stereo not drawn) | 8.17 µM
COc1ccc(C(=O)NN/C(=N/S(=O)(=O)c2ccc(C)cc2)c2ccccc2)cc1 | 1.48 µM
CC(C)(C)c1ccc(C(=O)NCc2ccccc2)cc1 | 8.05 µM
COc1ccc(-c2cc(C(=O)Nc3ccccc3F)on2)cc1 | 2.53 µM
O=C(c1cnn2ccccc12)N1CCc2ccccc21 | 1.28 µM
CS(=O)(=O)N1CCc2cc(C(=O)Nc3ccccc3Br)ccc21 | 4.96 µM
c1ccc(SCc2nc(-c3ccccn3)no2)cc1 | 3.01 µM
Cc1ccc(C(=O)Cn2nnc3ccccc32)cc1C | 0.858 µM

SMILES | AC40
CN(C)c1ccnc2sc3c(SCc4ccc(Cl)cc4)ncnc3c12 | 4.29 µM
O=C(OCc1csc(-c2ccccc2)n1)c1ccc(O)cc1 | 7.95 µM
CC(=O)N(c1ccccc1)c1nnc(-c2cnc(C)cn2)s1 | 1.55 µM
COc1ccc(N2C(=O)c3ccccc3NC23CCCCC3)cc1 | 1.62 µM
O=C(N=Nc1c(O)n(Cc2ccccc2)c2ccccc12)c1ccc(O)cc1 | 0.86 µM
O=C(NCC1CC1)Nc1ccc(Cl)cc1 | 12.9 µM
Cc1ccc(-c2noc(C3CCCCC3)n2)cc1 | 1.68 µM
C=CCSc1nncn1/N=C/c1ccc(OC)cc1 | 1.41 µM
COc1ccccc1N1CCN(C2=Nc3cccc4cccc2c34)CC1 | 3 µM
Nc1ccc(C#Cc2ccc3c(=O)c4ccccc4oc3c2)cc1 | 4.44 µM
Cc1nn(-c2ccccn2)c2c1-c1nc(N)ncc1CC2 | 2.38 µM
CN1CCSc2ccc(C(=O)Nc3cc(F)ccc3F)cc21 | 0.465 µM
CN(C)S(=O)(=O)c1cccc(-c2nnc(-c3ccccc3)o2)c1 | 8.86 µM
O=C(N/N=C/c1ccc(Cl)cc1Cl)c1cccc(F)c1 | 1.95 µM
Clc1ccc(-c2ccc(SCc3ccccn3)nn2)cc1 | 2.39 µM
CC(=O)N/C(N)=N/c1nc(=O)c2ccccc2s1 | 5.92 µM
CCCCN1CCc2c([nH]c3c(C)cccc23)C1=O | > 35 µM (inactive)
Cc1ccccc1S(=O)(=O)/N=C(/Nc1nc2ccccc2s1)c1ccccc1 | 31 µM
c1ccc2c(-c3csc(-c4ccncc4)n3)c[nH]c2c1 | 2.93 µM
O=c1c2c(nc3cc(-c4ccc(Br)cc4)[nH]n13)CCCC2 | 0.286 µM
Cc1cc(CN(C)C(=O)c2ccc3nc(Cc4ccccc4F)oc3c2)on1 | 14.1 µM
